Test results reported in patent US10745384B2, “Indazole derivatives as αv integrin antagonists” (BRISTOL-MYERS SQUIBB COMPANY, priority 2016, dated 2020).
Counter-ions that a name gives are not always drawn.

Experiments:
human αVβ1 = human αVβ1 (Homo sapiens, UniProt P05556+P06756); assay: human αVβ1 HTRF binding assay
Experimental: (§1) All binding assays used the HTRF (homogeneous time resolved fluorescence) technology from Cisbio International, therefore all assays are described as HTRF binding assays. The assay results for the Examples are listed above together with the characterization data. The HTRF binding assays are established for the following integrins: human αVβ6, human αVβ1, human αVβ3, human αVβ5, and human αVβ8. All assays used the following assay buffer: 20 mM Tris, pH 7.4, 1 mM MgCl2, 1 mM MnCl2, 0.01% Tween 20, and 0.01% BSA. Alternatively, a SPA-based assay was used for evaluation of receptor binding.
(§2) The following describes the components and a representative procedure for the human αVβ6 HTRF binding assay: Recombinant human αVβ6 Integrin (R & D systems, 3817-AV) was biotinylated. Biotinylated human αVβ6 Integrin was added to assay vessel at a final concentration of 1.25 nM. FITC-conjugated fibronectin (Cytoskeleton, FNR02) was then added at the final concentration of 5 nM. The mixture was centrifuged at 600 rpm for three minutes using Thermo Fisher Heraeus Multifuge X3 centrifuge and then incubated at room temperature for an hour. Streptavidin Terbium (Cisbio international 610STLB) was then added at the final concentration of 0.625 nM. The resulting mixture was centrifuged at 600 rpm for three minutes using Thermo Fisher Heraeus Multifuge X3 centrifuge and then incubated at room temperature overnight in dark before reading HTRF signals.
The SPA-based assay was carried out according to the protocol and procedures similar to the ones described in the following reference with appropriate modifications to agents and ligands which are readily understood by one skilled in the art: Pachter J A, Zhang R, Mayer-Ezell R., “Scintillation proximity assay to measure binding of soluble fibronectin to antibody-captured αVβ1 integrin” Anal Biochem. 1995 Sep. 1; 230(1):101-7.

human αVβ3 = human αVβ3 (Homo sapiens, UniProt P05106+P06756); assay: human αVβ3 HTRF binding assay
Experimental: as §1
as §2, with “signals. […]” for “signals.”

human αVβ5 = human αVβ5 (Homo sapiens, UniProt P06756+P18084); assay: human αVβ5 HTRF binding assay
Experimental: as §1
as §2, with “signals. […]” for “signals.”

human αVβ8 = human αVβ8 (Homo sapiens, UniProt P06756+P26012); assay: human αVβ8 HTRF binding assay
Experimental: as §1
as §2, with “signals. […]” for “signals.”

human αVβ6 = target: T1, human αVβ6 (Homo sapiens, UniProt P06756+P18564); assay: human αVβ6 HTRF binding assay; settings: recombinant human αVβ6 integrin, FITC-conjugated fibronectin
T1 construct: purchased R & D systems 3817-AV
How it was run: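 HTRF binding in 20 mM Tris pH 7.4 with 1 mM MgCl2, 1 mM MnCl2, 0.01% Tween 20 and 0.01% BSA. For αVβ6, biotinylated integrin (1.25 nM) and FITC-fibronectin (5 nM) were incubated 1 h at RT, then streptavidin-terbium (0.625 nM) was added overnight in the dark. An SPA-based fibronectin binding format was an alternative.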

Chain of human αVβ1 (P06756 31-992 limits assumed): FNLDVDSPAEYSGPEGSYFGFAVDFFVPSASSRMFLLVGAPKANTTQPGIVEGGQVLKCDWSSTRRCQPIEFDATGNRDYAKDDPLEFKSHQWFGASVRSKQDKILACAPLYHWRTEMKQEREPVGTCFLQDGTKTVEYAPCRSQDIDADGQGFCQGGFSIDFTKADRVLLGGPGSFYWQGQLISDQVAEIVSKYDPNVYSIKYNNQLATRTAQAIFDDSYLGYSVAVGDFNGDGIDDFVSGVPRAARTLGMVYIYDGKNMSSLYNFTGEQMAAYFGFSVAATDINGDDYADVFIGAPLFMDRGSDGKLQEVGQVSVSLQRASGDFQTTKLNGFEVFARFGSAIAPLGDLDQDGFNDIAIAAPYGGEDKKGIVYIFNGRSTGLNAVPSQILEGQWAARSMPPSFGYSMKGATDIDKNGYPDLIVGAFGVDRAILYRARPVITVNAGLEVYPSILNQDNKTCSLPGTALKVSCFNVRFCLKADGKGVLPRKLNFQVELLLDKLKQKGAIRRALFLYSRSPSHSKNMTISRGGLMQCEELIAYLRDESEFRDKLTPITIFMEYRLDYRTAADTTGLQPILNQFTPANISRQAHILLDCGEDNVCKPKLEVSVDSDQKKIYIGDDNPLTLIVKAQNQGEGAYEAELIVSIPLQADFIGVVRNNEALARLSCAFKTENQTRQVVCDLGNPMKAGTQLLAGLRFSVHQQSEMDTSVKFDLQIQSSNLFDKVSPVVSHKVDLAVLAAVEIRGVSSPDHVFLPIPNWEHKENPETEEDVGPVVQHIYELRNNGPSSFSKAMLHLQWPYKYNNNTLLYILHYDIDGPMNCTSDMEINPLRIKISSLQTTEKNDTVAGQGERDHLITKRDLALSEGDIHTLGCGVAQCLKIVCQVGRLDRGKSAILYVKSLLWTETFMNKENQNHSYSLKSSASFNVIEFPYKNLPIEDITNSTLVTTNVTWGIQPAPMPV
Chain of human αVβ1 (P05556 21-728 limits assumed): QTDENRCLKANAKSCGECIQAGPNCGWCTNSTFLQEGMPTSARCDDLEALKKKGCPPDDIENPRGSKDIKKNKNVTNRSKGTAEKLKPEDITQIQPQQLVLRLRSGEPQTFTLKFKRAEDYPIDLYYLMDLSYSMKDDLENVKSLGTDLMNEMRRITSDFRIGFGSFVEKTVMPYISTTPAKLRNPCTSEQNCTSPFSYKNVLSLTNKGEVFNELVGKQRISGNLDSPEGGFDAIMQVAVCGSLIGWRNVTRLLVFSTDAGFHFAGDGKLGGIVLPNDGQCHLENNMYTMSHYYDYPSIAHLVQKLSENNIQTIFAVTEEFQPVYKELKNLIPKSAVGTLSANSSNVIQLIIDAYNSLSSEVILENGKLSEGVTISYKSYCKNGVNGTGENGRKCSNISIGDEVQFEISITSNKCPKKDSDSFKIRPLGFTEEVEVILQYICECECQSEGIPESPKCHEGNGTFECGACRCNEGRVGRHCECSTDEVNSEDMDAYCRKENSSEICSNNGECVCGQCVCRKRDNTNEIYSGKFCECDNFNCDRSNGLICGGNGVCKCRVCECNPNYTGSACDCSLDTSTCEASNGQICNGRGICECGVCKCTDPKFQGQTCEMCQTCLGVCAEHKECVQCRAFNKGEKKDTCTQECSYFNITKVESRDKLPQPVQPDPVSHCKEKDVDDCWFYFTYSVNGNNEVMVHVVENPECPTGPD
Chain of human αVβ3 (P06756 31-992 limits assumed): as the sequence (P06756 31-992 limits assumed) above
Chain of human αVβ3 (P05106 27-718 limits assumed): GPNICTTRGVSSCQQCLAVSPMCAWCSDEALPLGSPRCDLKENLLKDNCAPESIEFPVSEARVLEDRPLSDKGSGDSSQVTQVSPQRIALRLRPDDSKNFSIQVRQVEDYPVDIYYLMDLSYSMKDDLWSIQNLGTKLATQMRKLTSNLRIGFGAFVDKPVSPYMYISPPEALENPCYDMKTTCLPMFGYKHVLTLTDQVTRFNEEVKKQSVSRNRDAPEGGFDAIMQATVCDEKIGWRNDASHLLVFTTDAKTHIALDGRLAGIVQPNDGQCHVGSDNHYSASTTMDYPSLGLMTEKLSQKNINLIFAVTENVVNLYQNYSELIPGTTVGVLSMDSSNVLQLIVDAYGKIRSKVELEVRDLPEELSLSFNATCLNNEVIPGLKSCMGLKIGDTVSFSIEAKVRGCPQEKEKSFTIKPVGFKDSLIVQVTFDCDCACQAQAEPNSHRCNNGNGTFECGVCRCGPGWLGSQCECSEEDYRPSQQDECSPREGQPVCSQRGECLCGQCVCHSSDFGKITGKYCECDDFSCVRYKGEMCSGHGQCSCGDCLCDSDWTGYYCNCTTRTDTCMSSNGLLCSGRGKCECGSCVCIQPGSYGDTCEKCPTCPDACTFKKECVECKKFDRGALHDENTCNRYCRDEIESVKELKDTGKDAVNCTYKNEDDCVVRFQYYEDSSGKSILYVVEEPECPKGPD
T1 sequence (P06756 31-992 limits assumed): as the sequence (P06756 31-992 limits assumed) above
T1 sequence (P18564 22-707 limits assumed): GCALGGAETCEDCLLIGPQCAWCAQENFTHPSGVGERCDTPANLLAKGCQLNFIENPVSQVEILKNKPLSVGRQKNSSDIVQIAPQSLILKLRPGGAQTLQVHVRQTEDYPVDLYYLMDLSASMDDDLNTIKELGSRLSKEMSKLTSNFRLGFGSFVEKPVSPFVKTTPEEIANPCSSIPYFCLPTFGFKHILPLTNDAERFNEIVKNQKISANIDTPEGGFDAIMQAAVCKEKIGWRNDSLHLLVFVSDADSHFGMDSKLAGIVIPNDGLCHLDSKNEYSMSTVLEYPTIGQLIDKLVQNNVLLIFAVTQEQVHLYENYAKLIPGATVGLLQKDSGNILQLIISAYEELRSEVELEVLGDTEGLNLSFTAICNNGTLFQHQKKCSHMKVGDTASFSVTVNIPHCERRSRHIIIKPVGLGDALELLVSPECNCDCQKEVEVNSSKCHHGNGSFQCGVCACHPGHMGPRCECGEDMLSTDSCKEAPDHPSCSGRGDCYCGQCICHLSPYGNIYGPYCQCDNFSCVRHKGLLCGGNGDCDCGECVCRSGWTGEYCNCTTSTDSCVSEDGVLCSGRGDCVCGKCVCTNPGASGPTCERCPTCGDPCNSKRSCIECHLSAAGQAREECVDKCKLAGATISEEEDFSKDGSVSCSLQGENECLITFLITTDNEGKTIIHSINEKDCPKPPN
Chain of human αVβ5 (P06756 31-992 limits assumed): as the sequence (P06756 31-992 limits assumed) above
Chain of human αVβ5 (P18084 24-719 limits assumed): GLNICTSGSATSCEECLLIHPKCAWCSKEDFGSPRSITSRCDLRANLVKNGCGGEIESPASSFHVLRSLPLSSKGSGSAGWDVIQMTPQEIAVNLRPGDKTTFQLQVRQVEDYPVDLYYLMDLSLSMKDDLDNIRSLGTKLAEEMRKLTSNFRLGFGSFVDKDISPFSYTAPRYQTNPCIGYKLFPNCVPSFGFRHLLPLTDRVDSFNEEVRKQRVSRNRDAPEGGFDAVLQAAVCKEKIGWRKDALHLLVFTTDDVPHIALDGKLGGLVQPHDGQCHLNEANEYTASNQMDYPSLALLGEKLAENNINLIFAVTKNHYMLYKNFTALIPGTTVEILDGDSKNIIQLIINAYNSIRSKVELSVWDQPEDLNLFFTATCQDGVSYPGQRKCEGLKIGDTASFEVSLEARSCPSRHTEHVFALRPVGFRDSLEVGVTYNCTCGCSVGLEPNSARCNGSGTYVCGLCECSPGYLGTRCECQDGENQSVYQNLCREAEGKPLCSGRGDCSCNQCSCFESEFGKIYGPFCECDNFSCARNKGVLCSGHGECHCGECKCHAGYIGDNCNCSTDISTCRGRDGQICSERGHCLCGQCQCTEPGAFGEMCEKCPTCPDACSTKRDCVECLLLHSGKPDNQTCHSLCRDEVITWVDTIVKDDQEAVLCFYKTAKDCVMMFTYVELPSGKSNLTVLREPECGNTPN
Chain of human αVβ8 (P06756 31-992 limits assumed): as the sequence (P06756 31-992 limits assumed) above
Chain of human αVβ8 (P26012 43-684 limits assumed): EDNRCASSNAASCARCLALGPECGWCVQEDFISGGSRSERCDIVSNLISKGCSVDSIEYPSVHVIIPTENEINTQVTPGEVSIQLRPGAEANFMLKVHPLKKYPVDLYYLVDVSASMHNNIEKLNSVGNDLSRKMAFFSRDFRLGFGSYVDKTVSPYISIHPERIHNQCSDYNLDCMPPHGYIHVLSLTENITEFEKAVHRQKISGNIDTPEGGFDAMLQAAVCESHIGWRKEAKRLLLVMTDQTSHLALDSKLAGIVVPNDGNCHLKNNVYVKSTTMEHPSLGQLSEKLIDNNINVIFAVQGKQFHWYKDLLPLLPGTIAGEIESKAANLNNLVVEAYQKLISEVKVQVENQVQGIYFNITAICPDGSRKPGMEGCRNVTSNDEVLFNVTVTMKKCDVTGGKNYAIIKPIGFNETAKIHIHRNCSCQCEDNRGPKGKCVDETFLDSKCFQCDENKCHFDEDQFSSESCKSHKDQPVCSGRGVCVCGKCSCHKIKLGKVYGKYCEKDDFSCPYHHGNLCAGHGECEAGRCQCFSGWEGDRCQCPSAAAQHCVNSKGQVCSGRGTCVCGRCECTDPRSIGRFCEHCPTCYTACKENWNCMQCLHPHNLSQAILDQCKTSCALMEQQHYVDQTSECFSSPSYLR

SMILES	IC50 (human αVβ1)	IC50 (human αVβ3)	IC50 (human αVβ5)	IC50 (human αVβ8)	IC50 (human αVβ6)
O=C(O)CC(c1cnc2ccccc2c1)n1ncc2cc(OCCc3ccc4c(n3)NCCC4)ccc21 (stereo not drawn) [Example 48, 3-(Quinolin-3-yl)-3-(5-(2-(5,6,7,8-tetrahydro-1,8-naphthyridin-2-yl)ethoxy)-1H-indazol-1-yl)propanoic acid, TFA]	270 nM	3.8 nM	0.54 nM	4400 nM	5.5 nM
Cn1cc2cc(C(CC(=O)O)n3ncc4cc(OCCc5ccc6c(n5)NCCC6)ccc43)cnc2n1 (stereo not drawn) [Example 120, 3-(2-Methyl-2H-pyrazolo[3,4-b]pyridin-5-yl)-3-(5-(2-(5,6,7,8-tetrahydro-1,8-naphthyridin-2-yl)ethoxy)-1H-indazol-1-yl)propanoic acid, 2 TFA]	200 nM	1.5 nM	0.2 nM	7500 nM	16 nM
O=C(O)C[C@@H](c1cnc2ccccc2c1)n1cc2ccc(CCCc3ccc4c(n3)NCCC4)cc2n1 [Example 87, (S)-3-(Quinolin-3-yl)-3-(6-(3-(5,6,7,8-tetrahydro-1,8-naphthyridin-2-yl)propyl)-2H-indazol-2-yl)propanoic acid]	10000 nM	2.3 nM	3.2 nM	3300 nM	1.3 nM
O=C(O)CC(c1cncc(CO)c1)n1ncc2cc(OCCc3ccc4c(n3)NCCC4)ccc21 (stereo not drawn) [Example 89, 3-(5-(Hydroxymethyl)pyridin-3-yl)-3-(5-(2-(5,6,7,8-tetrahydro-1,8-naphthyridin-2-yl)ethoxy)-1H-indazol-1-yl)propanoic acid]	370 nM	3.1 nM	0.42 nM	5000 nM	19 nM
COc1ccc([C@H](CC(=O)O)n2ncc3cc(OCCc4ccc5c(n4)NCCC5)ccc32)cn1 [Example 41, (S)-3-(6-Methoxypyridin-3-yl)-3-(5-(2-(5,6,7,8-tetrahydro-1,8-naphthyridin-2-yl)ethoxy)-1H-indazol-1-yl)propanoic acid]	83 nM	2.3 nM	0.22 nM	510 nM	6.2 nM
COc1ncc([C@H](CC(=O)O)n2cc3ccc(CCc4ccc5c(n4)NCCC5)cc3n2)cn1 [Example 118, (5)-3-(2-Methoxypyrimidin-5-yl)-3-(6-(2-(5,6,7,8-tetrahydro-1,8-naphthyridin-2-yl)ethyl)-2H-indazol-2-yl)propanoic acid]	4300 nM	2 nM	1.1 nM	3100 nM	12 nM
O=C(O)CC(c1cnc2[nH]ncc2c1)n1ncc2cc(OCCc3ccc4c(n3)NCCC4)ccc21 (stereo not drawn) [Example 106, 3-(1H-Pyrazolo[3,4-b]pyridin-5-yl)-3-(5-(2-(5,6,7,8-tetrahydro-1,8-naphthyridin-2-yl)ethoxy)-1H-indazol-1-yl)propanoic acid, 2 TFA]	78 nM	1.3 nM	2.6 nM	3000 nM	23 nM
O=C(O)C[C@@H](c1cncc(CO)c1)n1ncc2cc(OCCc3ccc4c(n3)NCCC4)ccc21 [Example 100, (5)-3-(5-(Hydroxymethyl)pyridin-3-yl)-3-(5-(2-(5,6,7,8-tetrahydro-1,8-naphthyridin-2-yl)ethoxy)-1H-indazol-1-yl)propanoic acid]	140 nM	2.9 nM	0.41 nM	4400 nM	14 nM
CCOc1ncc([C@H](CC(=O)O)n2ncc3cc(OCCc4ccc5c(n4)NCCC5)ccc32)cn1 [Example 107, (S)-3-(2-Ethoxypyrimidin-5-yl)-3-(5-(2-(5,6,7,8-tetrahydro-1,8-naphthyridin-2-yl)ethoxy)-1H-indazol-1-yl)propanoic acid, TFA]	64 nM	2.4 nM	0.32 nM	300 nM	15 nM
